Assay results published in PubChem BioAssay AID212 (DTP/NCI, 2004).
Values joined by “and” are separate entries in the source; they are usually repeats but may differ in a detail not shown here. Equal values may be shown once. Records with an inconclusive call do not appear.

System: BDF1 mice, colon carcinoma 38 sc, T/C %
Experiment: NCI In Vivo Anticancer Drug Screen. Data for tumor model Colon Carcinoma 38 (subcutaneous) in B6D2F1 (BDF1) mice
In short: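 Mice with transplanted tumors are treated with compound or vehicle. Survival or tumor size is then measured in both groups. The ratio of treated to control gives the reported figure.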

O=S(=O)(SC(S(=O)(=O)c1ccccc1)S(=O)(=O)c1ccccc1)c1ccccc1
T/C (endpoint: median tumor weight (est.), dose: 25.0 mg/kg/injection, schedule: Q07DX002 (ip), vehicle: Klucel (hydroxypropylcellulose) (HPC), higher = larger tumour): 174 % of control | T/C (endpoint: median tumor weight (est.), dose: 50.0 mg/kg/injection, schedule: Q07DX002 (ip), vehicle: Klucel (hydroxypropylcellulose) (HPC), higher = larger tumour): 199 % of control | T/C (endpoint: median tumor weight (est.), dose: 100.0 mg/kg/injection, schedule: Q07DX002 (ip), vehicle: Klucel (hydroxypropylcellulose) (HPC), higher = larger tumour): 113 % of control | T/C (endpoint: median tumor weight (est.), dose: 400.0 mg/kg/injection, schedule: Q07DX002 (ip), vehicle: Klucel (hydroxypropylcellulose) (HPC), higher = larger tumour): 115 % of control

COC1=C(C)C(=O)C2=C(C1=O)C1C3CC4=C(C(=O)C(OC)=C(C)C4=O)C(CNC(=O)C(C)=O)N3C(C#N)C(C2)N1C (stereo unspecified)
T/C (endpoint: median tumor weight (est.), dose: 0.16 mg/kg/injection, schedule: Q07DX002 (ip), vehicle: Klucel (hydroxypropylcellulose) (HPC), higher = larger tumour): 56 % of control | T/C (endpoint: median tumor weight (est.), dose: 0.25 mg/kg/injection, schedule: Q07DX002 (ip), vehicle: Klucel (hydroxypropylcellulose) (HPC), higher = larger tumour): 98 % of control | T/C (endpoint: median tumor weight (est.), dose: 0.31 mg/kg/injection, schedule: Q07DX002 (ip), vehicle: Klucel (hydroxypropylcellulose) (HPC), higher = larger tumour): 84 % of control | T/C (endpoint: median tumor weight (est.), dose: 0.5 mg/kg/injection, schedule: Q07DX002 (ip), vehicle: Klucel (hydroxypropylcellulose) (HPC), higher = larger tumour): 84 % of control | T/C (endpoint: median tumor weight (est.), dose: 0.62 mg/kg/injection, schedule: Q07DX002 (ip), vehicle: Klucel (hydroxypropylcellulose) (HPC), higher = larger tumour): 80 % of control | T/C (endpoint: median tumor weight (est.), dose: 1.0 mg/kg/injection, schedule: Q07DX002 (ip), vehicle: Klucel (hydroxypropylcellulose) (HPC), higher = larger tumour): 87 % of control | T/C (endpoint: median tumor weight (est.), dose: 1.25 mg/kg/injection, schedule: Q07DX002 (ip), vehicle: Klucel (hydroxypropylcellulose) (HPC), higher = larger tumour): 53 % of control and 73 % of control | T/C (endpoint: median tumor weight (est.), dose: 2.0 mg/kg/injection, schedule: Q07DX002 (ip), vehicle: Klucel (hydroxypropylcellulose) (HPC), higher = larger tumour): 72 % of control | T/C (endpoint: median tumor weight (est.), dose: 4.0 mg/kg/injection, schedule: Q07DX002 (ip), vehicle: Klucel (hydroxypropylcellulose) (HPC), higher = larger tumour): 77 % of control

O=c1[nH]cc(F)c(=O)[nH]1
T/C (endpoint: median survival time, dose: 16.2 mg/kg/injection, schedule: Q04DX002 (ip), vehicle: saline, higher = longer survival): 119 % of control | T/C (endpoint: median survival time, dose: 21.1 mg/kg/injection, schedule: Q01DX010 (ip), vehicle: saline, higher = longer survival): 199 % of control | T/C (endpoint: median survival time, dose: 34.0 mg/kg/injection, schedule: Q01DX010 (ip), vehicle: saline, higher = longer survival): 199 % of control | T/C (endpoint: median survival time, dose: 36.0 mg/kg/injection, schedule: Q04DX003 (ip), vehicle: saline, higher = longer survival): 119 % of control | T/C (endpoint: median survival time, dose: 42.0 mg/kg/injection, schedule: Q04DX004 (ip), vehicle: saline, higher = longer survival): 122 % of control | T/C (endpoint: median survival time, dose: 60.0 mg/kg/injection, schedule: Q04DX004 (ip), vehicle: alkali diluted with saline, higher = longer survival): 197 % of control and 204 % of control | T/C (endpoint: median survival time, dose: 73.0 mg/kg/injection, schedule: Q07DX003 (iv), vehicle: saline, higher = longer survival): 124 % of control | T/C (endpoint: median survival time, dose: 75.0 mg/kg/injection, schedule: Q04DX002 (ip), vehicle: saline, higher = longer survival): 233 % of control | T/C (endpoint: median survival time, dose: 100.0 mg/kg/injection, schedule: Q04DX004 (ip), vehicle: alkali diluted with saline, higher = longer survival): 72 % of control | T/C (endpoint: median survival time, dose: 167.0 mg/kg/injection, schedule: Q04DX004 (ip), vehicle: alkali diluted with saline, higher = longer survival): 57 % of control | T/C (endpoint: median tumor weight (est.), dose: 21.6 mg/kg/injection, schedule: Q04DX004 (ip), vehicle: saline, higher = larger tumour): 65 % of control | T/C (endpoint: median tumor weight (est.), dose: 36.0 mg/kg/injection, schedule: Q04DX004 (ip), vehicle: saline, higher = larger tumour): 38 % of control

Cc1ccc(S(=O)(=O)N/N=C/C(=O)O)cc1
T/C (endpoint: median tumor weight (est.), dose: 12.5 mg/kg/injection, schedule: Q07DX002 (ip), vehicle: other, higher = larger tumour): 116 % of control | T/C (endpoint: median tumor weight (est.), dose: 25.0 mg/kg/injection, schedule: Q07DX002 (ip), vehicle: other, higher = larger tumour): 165 % of control | T/C (endpoint: median tumor weight (est.), dose: 50.0 mg/kg/injection, schedule: Q07DX002 (ip), vehicle: other, higher = larger tumour): 75 % of control | T/C (endpoint: median tumor weight (est.), dose: 100.0 mg/kg/injection, schedule: Q07DX002 (ip), vehicle: other, higher = larger tumour): 90 % of control | T/C (endpoint: median tumor weight (est.), dose: 200.0 mg/kg/injection, schedule: Q07DX002 (ip), vehicle: other, higher = larger tumour): 178 % of control

ClC(Cl)(Cl)C1=NCc2nnn(Cc3ccccc3)c2N1
T/C (endpoint: median tumor weight (est.), dose: 12.5 mg/kg/injection, schedule: Q07DX002 (ip), vehicle: distilled water + Tween-80, higher = larger tumour): 116 % of control | T/C (endpoint: median tumor weight (est.), dose: 25.0 mg/kg/injection, schedule: Q07DX002 (ip), vehicle: distilled water + Tween-80, higher = larger tumour): 80 % of control | T/C (endpoint: median tumor weight (est.), dose: 25.0 mg/kg/injection, schedule: Q07DX002 (ip), vehicle: saline with Tween-80, higher = larger tumour): 97 % of control | T/C (endpoint: median tumor weight (est.), dose: 100.0 mg/kg/injection, schedule: Q07DX002 (ip), vehicle: saline with Tween-80, higher = larger tumour): 102 % of control | T/C (endpoint: median tumor weight (est.), dose: 200.0 mg/kg/injection, schedule: Q07DX002 (ip), vehicle: distilled water + Tween-80, higher = larger tumour): 80 % of control | T/C (endpoint: median tumor weight (est.), dose: 400.0 mg/kg/injection, schedule: Q07DX002 (ip), vehicle: saline with Tween-80, higher = larger tumour): 155 % of control

CN1c2c(nc(N)[nH]c2=O)NCC1CCNc1ccc(C(=O)NC(CCC(=O)O)C(=O)O)cc1 (stereo unspecified)
T/C (endpoint: median tumor weight (est.), dose: 50.0 mg/kg/injection, schedule: Q07DX003 (ip), vehicle: saline, higher = larger tumour): 155 % of control | T/C (endpoint: median tumor weight (est.), dose: 100.0 mg/kg/injection, schedule: Q07DX003 (ip), vehicle: saline, higher = larger tumour): 64 % of control | T/C (endpoint: median tumor weight (est.), dose: 200.0 mg/kg/injection, schedule: Q07DX003 (ip), vehicle: saline, higher = larger tumour): 99 % of control | T/C (endpoint: median tumor weight (est.), dose: 400.0 mg/kg/injection, schedule: Q07DX003 (ip), vehicle: saline, higher = larger tumour): 98 % of control | T/C (endpoint: median tumor weight (est.), dose: 800.0 mg/kg/injection, schedule: Q07DX003 (ip), vehicle: saline, higher = larger tumour): 92 % of control
